Assay results taken from PMC8048383 (Cancer cell, 2021).

Columns and labels:
[1] = system: platinum-resistant SCLC patients; settings: second-line lurbinectedin; ref Trigo et al., 2020; cited from earlier work
SCLC cells = assay: MIPE 5.0 library combination screen with indotecan, pairs ranked by ExcessHSA; type: cell-based, human; settings: in combination with indotecan (LMP400)
DMS114 cells = assay: flow cytometry EdU incorporation and cell cycle analysis; type: cell-based, human; settings: M6620 with topotecan; forced progression to G2/M phase
[2] = plasma pharmacokinetics in trial patients; type: in vivo, human; settings: cycle 1, suggesting absence of drug-drug interactions
[3] = system: TOP1 DNA-protein crosslinks (TOP1-DPCs) in DMS114 cells; assay: in vivo complex of enzyme; type: cell-based, human
[4] = system: DMS114 and H209 SCLC cell models; assay: replication; type: cell-based, human
[5] = system: replication protein A (RPA) S33 phosphorylation; assay: Western blot of RPA phosphorylation; type: cell-based, human
pCHK1 (Ser345) = assay: pharmacodynamics of pCHK1; type: in vivo, mice; settings: M6620 10, 20 and 30 mg/kg i.v. with 50 mg/kg irinotecan i.p.; 1-24 h
[6] = system: patients with platinum-resistant SCLC; settings: topotecan monotherapy, ref Horita et al., 2015; cited from earlier work

In the case of `COc1ccc2[nH]c3c(c2c1)CCN[C@]31CS[C@@H]2c3c(OC(C)=O)c(C)c4c(c3[C@H](COC1=O)N1[C@@H]2[C@H]2c3c(cc(C)c(OC)c3O)C[C@@H]([C@@H]1O)N2C)OCO4` [lurbinectedin], the “confirmed ORR” value [1] is given as 22.2%, the “median DOR” value [1] is given as 4.7 months and the “patients with confirmed responses with DOR>6 months” value [1] is given as 11.7%.
In the case of `CC(C)c1cc(-c2n[nH]c(=O)n2-c2ccc3c(ccn3C)c2)c(O)cc1O` [ganetespib], the “rank of TOP1 inhibitor-drug pair by ExcessHSA” value (SCLC cells) is reported as 5.
With `CNCc1ccc(-c2cc(-c3nc(-c4ccc(S(=O)(=O)C(C)C)cc4)cnc3N)on2)cc1` [M6620, berzosertib] the “S-phase arrest induced by TOP1 inhibition” value (DMS114 cells) was “abrogated the S-phase arrest induced by TOP1 inhibition”, the “rank of TOP1 inhibitor-drug pair by ExcessHSA” value (SCLC cells) was 32 and the “plasma pharmacokinetics in combination” value [2] was “appeared consistent with the individual agents”. The “increase in TOP1-DPCs” value ([3]; M6620 pre-treatment (1 μM, 4 h), after 2-hour treatment with topotecan (1 μM)) was 1.4 fold, the topotecan-induced replication block ([4]; M6620 added to topotecan) was “abrogated the replication block” and the “topotecan-induced RPA32 phosphorylation” value ([5]; M6620 treatment) was “reduced the topotecan-induced RPA32 phosphorylation”. The “irinotecan induced pCHK1 (Ser345)” value (pCHK1 (Ser345)) was “blocks irinotecan induced pCHK1 in a dose- and time-dependent manner”.
For `O=c1cc(-c2cccc3c2Sc2ccccc2S3)oc(N2CCOCC2)c1` [KU55933], the “potentiation of topotecan-generated TOP1-DPCs” value ([3]; 1 μM pretreatment 4 h before topotecan 1 μM 2 h) was “neither an ATM inhibitor (KU55933) nor a DNA-PKcs inhibitor (VS984) potentiated topotecan-generated TOP1-DPCs”.
In the case of `CC[C@@]1(O)C(=O)OCc2c1cc1n(c2=O)Cc2cc3c(CN(C)C)c(O)ccc3nc2-1` [topotecan], the “responses (proportion of patients)” value [6] is listed as “approximately 5%”, the “plasma pharmacokinetics in combination” value [2] is listed as “appeared consistent with the individual agents” and the replication velocity ([4]; within 30 minutes of topotecan treatment) is listed as “significantly reduced replication velocity”. For the same compound, the “phosphorylation of RPA at S33” value ([5]; DMS114 cells, following exposure to topotecan) was “rapid phosphorylation of replication protein A (RPA) at S33”.
In the case of `COc1cccc(OCCCN)c1-c1cc(Nc2cnc(C#N)cn2)n[nH]1` [prexasertib], the “rank of TOP1 inhibitor-drug pair by ExcessHSA” value (SCLC cells) is reported as 9.
